Assay results published in PubChem BioAssay (NCI).
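Exposure lasted 48 hours, with cells grown in 96-well plates and compounds tested at five concentrations. TGI marks complete inhibition of growth.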

Legend:
Experiment in all cases: inhibition of tumour cell growth, NCI panel, 48 h
[1] = test system: MDA-MB-435
[2] = test system: HT29 colon
[3] = test system: HCT-116 colon
[4] = test system: KM12 colon
[5] = test system: ACHN renal
[6] = test system: CAKI-1 renal
[7] = test system: TK-10 renal
[8] = test system: OVCAR-5 ovarian
[9] = test system: OVCAR-4 ovarian
[10] = test system: SF-539 CNS
[11] = test system: NCI-H522 lung
[12] = test system: SNB-19 CNS
[13] = test system: DU-145 prostate
[14] = test system: COLO 205 colon
[15] = test system: SK-MEL-28 melanoma
[16] = test system: OVCAR-3 ovarian
[17] = test system: A498 renal
[18] = test system: MDA-N

| SMILES | TGI [1] [µM] | TGI [2] [µM] | TGI [3] [µM] | TGI [4] [µM] | TGI [5] [µM] | TGI [6] [µM] | TGI [7] [µM] | TGI [8] [µM] | TGI [9] [µM] | TGI [10] [µM] | TGI [11] [µM] | TGI [12] [µM] | TGI [13] [µM] | TGI [14] [µM] | TGI [15] [µM] | TGI [16] [µM] | TGI [17] [µM] | TGI [18] [µM] |
| --- | --- | --- | --- | --- | --- | --- | --- | --- | --- | --- | --- | --- | --- | --- | --- | --- | --- | --- |
| O=c1sc(Nc2ccc3ccccc3c2Cl)nc2ccccc12 | > 100 | > 100 | > 100 | > 100 | > 100 | > 100 | > 100 | > 100 | > 100 | > 100 | > 100 | > 100 | > 100 | > 100 | > 100 | > 100 |  |  |
| O=S1(=O)OCCOS(=O)(=O)C1(Cl)Cl |  | > 100 | > 100 | > 100 |  | > 100 | > 100 |  | > 100 | > 100 | > 100 | > 100 |  | > 100 | > 100 | > 100 | > 100 |  |
| CC1OC(OC2C(OC(=O)[C@]34CCC(C)(C)CC3C3=CCC5[C@@]6(C)C[C@H](O)[C@H](OC7OC(COC8OC(CO)C(O)C(O)C8O)C(O)C(O)C7O)[C@@](C)(C(=O)O)C6CC[C@@]5(C)C3(C)CC4)OCC(O)C2O)C(O)C(O)C1OC1OCC(O)C(O)C1O (stereo partly drawn) |  | > 100 |  | > 100 | > 100 | > 100 | > 100 | > 100 |  | > 100 | > 100 | > 100 |  | > 100 | > 100 | > 100 | > 100 |  |
| Cc1ccc(NC(=O)CCc2nnc3s/c(=C\c4cccc([N+](=O)[O-])c4)c(=O)n23)cc1 |  | > 100 | > 100 | > 100 | > 100 | > 100 | > 100 | > 100 | > 100 | > 100 | > 100 | > 100 |  | > 100 | > 100 | > 100 | > 100 |  |
| O=C1CNc2cc(N3CCOCC3)ccc2N1 | > 100 | > 100 | > 100 | > 100 | > 100 | > 100 | > 100 | > 100 | > 100 |  | > 100 | > 100 | > 100 | > 100 | > 100 | > 100 | > 100 |  |
| Cc1cc(N(CCC#N)CCC#N)ccc1/C=C1N=C(/C=C/c2ccccc2)N(c2ccc(S(N)(=O)=O)cc2)C\1=O |  | > 100 | > 100 | > 100 | > 100 | > 100 | > 100 | > 100 | > 100 | > 100 | > 100 | > 100 |  | > 100 | > 100 | > 100 | > 100 |  |
| CN1C(=S)CSc2ccccc21 |  | > 100 | > 100 | > 100 | > 100 | > 100 | > 100 | > 100 | > 100 | > 100 | > 100 | > 100 |  | > 100 | > 100 | > 100 |  |  |
| Cc1cn(CC2=NC3CCCCC3N2)c(=O)[nH]c1=O (stereo not drawn) |  | > 100 | > 100 |  | > 100 |  | > 100 | > 100 |  |  | > 100 | > 100 | > 100 | > 100 | > 100 |  | > 100 |  |
| O=C(CSc1nnc(Cc2ccccc2)o1)Nc1ccc(Cl)cc1[N+](=O)[O-] |  | 49.2 | 27.7 |  | 25.2 |  | 30.8 |  | 33.9 |  | 9.26 | 31 |  | 46.4 | 29 |  |  |  |
| CCC(=O)N(c1ccccc1)C(C)CN1CCC(O)(c2cccc(C(F)(F)F)c2)CC1 (stereo not drawn) | 42 | 27.2 | 31.1 | > 100 | > 100 | > 100 | 73.3 | 55.4 | > 100 | 49 | 39 | > 100 |  | 28.5 | 61.2 | > 100 | 66.3 | 39.2 |
| CCCC(=O)N(C)N=Nc1ccc(C(=O)OCC)cc1 |  | > 100 | > 100 | > 100 | > 100 | > 100 | > 100 | > 100 | > 100 | > 100 | > 100 | > 100 | > 100 |  | > 100 | > 100 | > 100 | > 100 |
| COC(=O)C1CC(c2ccc(Cl)cc2)=NO1 (stereo not drawn) |  | > 100 | > 100 | > 100 | > 100 |  | > 100 | > 100 | > 100 | > 100 | > 100 |  |  | > 100 | > 100 | > 100 | > 100 |  |
